What all share (assay type): cell-based, human
Assay [1] concerns Glio3. The assay can be described thus: MTS cell viability assay, GSC line Glio3. The conditions noted are these: 72 h, MTS, ±SEM, read-out: Glio3 IC50. From the text:
(§1) The generation and characterization of our GSC lines (Glio3, Glio9, Glio38) have been previously described. In brief, following patient consent, the resected tumors were mechanically and enzymatically dissociated, and red blood cells were removed using Red Cell Lysis buffer (SigmaAldrich, St. Louis, MO, USA). Cells were filtered and plated in a 3:1 ratio of Dulbecco’s Modified Eagle’s medium (DMEM): F12 (Gibco, Carlsbad, CA, USA) media supplemented with 1% penicillin and streptomcycin (penn/strep), 20 ng/mL each of human epidermal growth factor and human fibroblast growth factor, and 2% Gem21 NeuroPlex Serum-Free Supplement (Gemini Bioscience, Sacramento, CA, USA); a formulation consistent for the generation of GBM stem cell lines. Both Glio3 and Glio38 were derived from tumors prior to drug or radiation therapy and grow as neurospheres, whereas Glio9 was derived from a recurrent tumor, following chemo and radiotherapy, and grows adherent. The GBM cell line U87 MG (U87), purchased from ATCC (Manassas, VA, USA) and the pediatric GBM cell line SJ-GBM2 was obtained from Children’s Oncology Group. SJ-GBM2 cell line was derived from a child with glioblastoma post therapy and is used as part of a National Cancer Institute pediatric pre-clinical testing program. Both lines were maintained in RPMI media supplemented with 10% FBS and 1% penn/strep. Mesenchymal stem cells (MSCs) originally derived from human bone marrow aspirates were obtained from Thermo Fisher Scientific and maintained in MEM alpha supplemented with 20% FBS and 1% penn/strep. Prior to drug treatment, MSCs were moved to media with 10% FBS. Upon receipt U87, SJ-GBM2 and MSCs were immediately expanded with several aliquots frozen down for future use. These cell lines are not listed on the most recent NCBI database for misidentification and contamination of human cell lines. All cell lines were routinely tested for mycoplasma using LookOut mycoplasma PCR detection kit (Sigma-Aldrich, St. Louis, MO, USA) according to the manufacturer’s instructions and were maintained at 37 °C in a humidified 5% CO2 incubator.
(§2) The chalcones were dissolved in dimethyl sulfoxide (DMSO) at a concentration of 10 mM, vortexed and subsequently diluted to obtain 1 mM and 0.1 mM stock concentrations. C-dot-trans-chalcones were resuspended in supplement-free media (3:1 ratio DMEM/F12 for GSC experiments or RPMI for non-stem cell line experiments). Cell viability in response to drug treatment was determined using CellTiter 96 AQueous One Solution Cell Proliferation Assay, a colorimetric MTS assay kit (Promega, Madison, WI, USA). The GSCs were seeded into 96-well plates using modified neurosphere media containing 5% FBS at a density of 10,000 cells per well. MSCs and U87 cells were plated at 5000 cells/well while SJ-GBM2 cells were plated at 10,000 cells/well. The next day cells were treated with increasing concentrations of chalcones or C-dot-chalcone conjugate. Next, 72 h later, media was aspirated and 100 μL of a 1:5 solution of MTS to cell culture media was added to each well and incubated for 1–4 h. Optical density was measured at 490 nm using BioTek Synergy HT plate reader. Viability of drug treated cells is expressed as the percent viable cells relative to non-treated cells (100% viability). Experiments were done in triplicate.

The subject of assay [2] is Glio9. As to the kind of experiment: MTS cell viability assay, GSC line Glio9. The conditions noted are these: 72 h, MTS, ±SEM, read-out: Glio9 IC50.
From the text: as §1, §2
(In general: Formazan colour is commonly taken as a measure of viable cells.)

Assay [3] has as its system Glio38. The assay can be described thus: MTS cell viability assay, GSC line Glio38. The conditions noted are these: 72 h, MTS, ±SEM, read-out: Glio38 IC50.
From the text: as §1, §2

In assay [4] the test system is mesenchymal stem cells (MSC). The assay can be described thus: MTS cell viability assay, mesenchymal stem cells. The conditions noted are these: 72 h, estimated, >>10 indicates no cell death observed at any of the concentrations tested.
From the text: as §1, §2

The subject of assay [5] is GSC lines Glio3, Glio9 and Glio38. The assay can be described thus: MTS cell viability assay, all three GSC lines together. The conditions noted are these: 72 h.
From the text: as §1, §2

Assay [6] deals with U87. As to the kind of experiment: MTS cell viability assay, U87. The conditions noted are these: 72 h. From the text:
The generation and characterization of our GSC lines (Glio3, Glio9, Glio38) have been previously described. In brief, following patient consent, the resected tumors were mechanically and enzymatically dissociated, and red blood cells were removed using Red Cell Lysis buffer (SigmaAldrich, St. Louis, MO, USA). Cells were filtered and plated in a 3:1 ratio of Dulbecco’s Modified Eagle’s medium (DMEM): F12 (Gibco, Carlsbad, CA, USA) media supplemented with 1% penicillin and streptomcycin (penn/strep), 20 ng/mL each of human epidermal growth factor and human fibroblast growth factor, and 2% Gem21 NeuroPlex Serum-Free Supplement (Gemini Bioscience, Sacramento, CA, USA); a formulation consistent for the generation of GBM stem cell lines. […]
The chalcones were dissolved in dimethyl sulfoxide (DMSO) at a concentration of 10 mM, vortexed and subsequently diluted to obtain 1 mM and 0.1 mM stock concentrations. […] Cell viability in response to drug treatment was determined using CellTiter 96 AQueous One Solution Cell Proliferation Assay, a colorimetric MTS assay kit (Promega, Madison, WI, USA). […] Optical density was measured at 490 nm using BioTek Synergy HT plate reader. Viability of drug treated cells is expressed as the percent viable cells relative to non-treated cells (100% viability). […]

For assay [7], the system named is Glio3. The assay can be described thus: Sphere forming assay, Glio3. The conditions noted are these: 100 nM alone, vs non-treated controls. The procedure: (§3) The effect of chalcones’ clonogenic growth potential was determined using sphere-forming assays. Glio3 and Glio38 neurosphere cell lines were dissociated using Accutase (Gemini Bioscience, Sacramento, CA, USA), filtered using 40-micron filter and single cells were seeded at approximately 50 cells per well in a 96-well plate. Cells were treated with 0.1, 0.25 or 0.5 μM of chalcone or 0.01, 0.05 or 0.1 μM of C-dot chalcone conjugate on day 0 and spheres were manually counted under microscopy on day 14. All experiments were done in triplicate. Representative images were obtained using EVOS XL Core light microscope (Thermo Fisher Scientific, Waltham, MA, USA).

Assay [8] deals with Glio38. The assay can be described thus: Sphere forming assay, Glio38. The conditions noted are these: 100 nM alone, vs non-treated controls. The procedure:
as §3

Drawing on PMC9316063, “Chalcones as Anti-Glioblastoma Stem Cell Agent Alone or as Nanoparticle Formulation Using Carbon Dots as Nanocarrier” (Pharmaceutics, 2022), this text covers IC50 and neurosphere formation for 3 compounds.

Read-outs that look alike come from different tables or passages of the source. A value given as a limit tells only on which side of the number the result lay.

With 3,5-dimethoxy chalcone [Chalcone 3f], the IC50 in assay [1] was 7.8 ± 0.9 µM; in assay [2], 9.7 ± 2 µM; in assay [3], 6.5 ± 0.9 µM; in assay [4], 74.8 µM; in assay [5] (average of Glio3, Glio9, Glio38, read-out: average IC50 across the 3 GSC lines), 8.2 ± 0.8 µM; in assay [6] it was 8.5 ± 0.04 µM.

On to “transferrin: transferrin alone, targeting ligand used in the conjugates”, for which the neurosphere formation entry in assay [7] and in assay [8] was “neither c-dots or transferrin alone significantly reduced neurosphere formation” each time.

As for `Nc1ccc(C(=O)/C=C/c2cccc(Br)c2)cc1` [Chalcone 3x], the IC50 in assay [1] (Homo sapiens) was 9.3 ± 1.1 µM; in assay [2] (Homo sapiens), 7 ± 0.5 µM; in assay [3] (Homo sapiens), 5.9 ± 0.8 µM; in assay [4] (Homo sapiens, Mesenchymal stem cells), 28.1 µM; in assay [5] (Homo sapiens, average of Glio3, Glio9, Glio38, read-out: average IC50 across the 3 GSC lines) it was 7.4 µM; in assay [5] (Homo sapiens, in all three GSC lines, read-out: IC50 in all GSC lines (bound stated in text)), less than 10 µM.

A word on the IC50: it is the midpoint of a concentration-inhibition curve.
